1 molecule from patent US20250276996A1, “CATIONICALLY-ENFRAMED HIGH DENSITY AROMATIC PEPTIDES” (Research Foundation of the City University of New York, priority 2022, published 2025) can be followed below.

Data set [1] can be described thus: Nile Red fluorescence shift in POPC liposomes. The format is binding. The procedure: The resulting multilamellar vesicles were vortexed lightly and sized into small unilamellar vesicles by heated bath sonication for 25 min. All liposomes were cooled to ambient temperature before use.
Interactions between biotin-HDAP2 and Phospholipid liposomes measured by Nile Red fluorescence: The hydrophobicity of biotin-HDAP2 and phospholipids was examined by changes in the spectral fluorescence shift and intensity of Nile Red (NR, 10 μM). NR increases its intensity of fluorescence when combined with the hydrophobic environments of acyl chains of phospholipids, and produces a blue shift when hydrophobicity is increased. All experiments were done with 30 μM of either CL or POPC and 30 μM of biotin-HDAP2 in 10 mM Hepes (pH 7.4) to optimize the electrostatic interactions of peptides with phospholipids. The solvents used to dissolve the various phospholipids (chloroform, methanol, and ethanol) had negligible effects on the fluorescence spectra.

For data set [2], the system named is MDBK cells. The data set is described as follows: Cell survival in serum-free media (AlamarBlue). It counts as cell-based, bovine. On the procedure: Serum starvation experiments: Biotin-HDAP2's ability to improve cell viability and function following serum starvation was assessed. For all experiments, MDBK cells were seeded in 35 mm cell culture dishes (5×10^4 cells) in DMEM medium with 10% FBS (Fetal Bovine Serum) for 24 hrs and then incubated in serum-free medium with or without biotin-HDAP2 (1 μM) for 5 days to induce cell death. For quantitative measurements, wells were washed to remove dead cells, and then stained with AlamarBlue for 60 min. Quantitative analysis of dye conversion was measured using a fluorescent plate reader (550 ex/580 em) and cell viability was expressed as folds change (increase or decrease) over scrum-starved untreated cells.
Effects of peptides on cell survival in serum-free media: Cell survival in serum starvation conditions was studied in the presence and absence of biotin-HDAP2 using MDBK cells. Cells were plated at a density of 1-2×10^5 cells/well in 96 well plates in DMEM/10% FBS media. The following day, cells were washed and the medium replaced with DMEM serum-free media in the presence or absence of different concentrations of biotin-HDAP2 and incubated for 5 days. Cell viability was assessed using the Resaruzin (Alamar blue) indicator dye. Quantitative analysis of dye conversion was measured using a fluorescent plate reader (ex/em=550/580 nm) and viability was expressed as fold increase over of untreated cells.

Data set [3] relates to MDBK cells. Put plainly: Cellular oxidative stress in serum-starved cells (CM-H2DCFDA). The format is cell-based, bovine. Particulars: 1 μM. On the procedure: MDBK cells incubated in serum free media for 5-7 days in the presence or absence of 1 μM of biotin-HDAP2. At the end of the incubation period, 100 nM CM-H2DCFDA (oxidative stress marker) was added to the cells and incubated for 30 minutes. Then, media was removed and cells were fixed in 4% PFA. Cells were then visualized using a fluorescent microscope (Nikon Eclipse-ci-SRS). Experiments were conducted 5 times in triplicate for each experimental condition.
To measure the effects of biotin-HDAP2 on the mitochondrial potential and cellular oxidative stress, cells were cultured in DMEM/F12 without fetal bovine serum (FSB) in the presence or absence of biotin-HDAP2 (1 μM). […]
Unless otherwise noted, data for all tissue culture experiments were collected from three independent trials, with each experiment done in triplicate. […] Photooxidation of the indicator dyes were minimized by using single exposures to the fluorescence for each field imaged. Fluorescence intensity was analyzed using ImageJ (NIH), and MTR and CM-H2DCFDA fluorescence were normalized to Hoechst fluorescence to account for differences in cell number in each field. […] All data are expressed as means±SEM.

For a further data set, the system named is HK-2 cells. Put plainly: PCNA expression in serum-starved cells. The format is cell-based. Particulars: serum starved for 3 days. The text has this: FIG. 18B are representative images of HK-2 cells serum starved for 3 days in the presence or absence of biotin-HDAP2 (SEQ ID NO: 1), HDAP4 (SEQ ID NO: 13), and biotin-HDAP6 (SEQ ID NO: 10) and then tested for the expression of Proliferating Cell Nuclear Antigen (PCNA) (bottom row), a positive marker for cell proliferation. The Hoechst 33342 probe (Hc) was used to label the nucleus to determine cellular localization (top row).

The subject of the next data set is mice. Conditions: 3 mg/kg daily for 14 days or biweekly for two months.

Where “and” joins values, the source holds several entries; their conditions need not be identical. Equal entries are not always repeated. Non-standard residues stand in square brackets, D forms with d. Residues, ends and D or L forms follow the SMILES beside them. *: point of attachment. Biotin = O=C1N[C@H]2[C@H](CS[C@H]2CCCCC(=O)*)N1

For `N=C(N)NCCC[C@@H](NC(=O)[C@H](Cc1ccccc1)NC(=O)[C@H](Cc1ccccc1)NC(=O)[C@@H](CCCNC(=N)N)NC(=O)CCCC[C@@H]1SC[C@@H]2NC(=O)N[C@@H]21)C(N)=O` [biotin-HDAP2, Biotin-dArg-Phe-Phe-dArg-NH2] (Biotin-[dR]FF[dR]-NH2), in data set [1], the “Nile Red shift” value is given as “no shift could be detected”. The “AlamarBlue fluorescence / protection during serum starvation” value with MDBK cells [2] (1 μM, 5 days serum starvation) is reported as “increased AlamarBlue fluorescence”. For the same molecule, the “increase in cell survival compared to untreated controls” value in the data set with MDBK cells [2] (1 μM, serum-free 5 days, AlamarBlue) came to 50%. Further, the 50% effective concentration (EC50) in the data set with MDBK cells [2] (serum-free, 5 days, AlamarBlue, read-out: EC50, cell survival in serum-free conditions) was ~100 nM and 100 nM. Moreover, the “oxidative stress in starved cells” value with MDBK cells [3] (serum free 5-7 days, 100 nM CM-H2DCFDA) is “prevented oxidative stress in starved cells”. Besides, the “reduction in CM-H2DCFDA fluorescence compared to control” value with MDBK cells [3] (serum-free) was > 80% and 80%. The “expression of PCNA and cell proliferation” value in the data set on HK-2 cells is “increase proliferation expression of PCNA and cell proliferation during serum starvation”. Further, the toxicity in mice result in the data set with mice is given as “no adverse effects”.
